Results published in patent US20260158009A1 (GENZYME CORPORATION, priority 2023, published 2026).

Legend:
U937 cells = assay: Cellular assay in U937 cells: activity of RIPK1 inhibitors on TNFα/zVAD.fmk-induced cell death (necroptosis), CellTiter 96 AQueous (MTS) readout; format: cell-based; conditions: Homo sapiens, U-937
Text: Upon TNF-Receptor I ligation, Ser/Thr kinase RIPK1 is recruited to a transient receptor complex 1. Upon modification of RIPK1 which promotes activation of RIPK1, complex IIb can form, that involves recruitment of RIPK3 and MLKL (mixed lineage-kinase domain-like protein) which then translocates from the cytosol to the plasma membrane to execute cell death (Cai, Z. et al, Nat. Cell Biol. (2014) 16:55-65).
Cell death was quantified in 96 well plates by determination of the amount of live cell using a CellTiter 96 AQueous reagent (Promega), a calorimetric method to measure the number of live cells by reducing tetrazolium compound [3-(4,5-dimethylthiazol-2-yl)-5-(3-carboxymethoxyphenyl)-2-(4-sulfophenyl)-2H-tetrazolium, inner salt; MTS] into formazan. Absorbance of formazan was read at 490 nm. The inhibitory activity of the test compound was quantified in a concentration response curve (CRC) experiment.
Compounds were obtained as 10 mM stock solutions and were diluted 1 to 10 volumes with DMSO to yield a 1 mM solution. From this solution 2 μl were diluted with 998 μl growth medium. 100 μl of 2 μM compound solution was further diluted sequentially with a dilution factor of 2.5 by adding 150 μl growth medium. A total of 10 concentrations were tested ranging from 10 μM to 0.26 nM or from 1 μM to 0.07 nM.
U937 cells were cultured in RPMI1640 Glutamax and 10% heat inactivated FBS. 50 μl cell suspension containing 1×10^6 cells/ml supplemented with 50 μM zVAD.fmk (Benzyloxycarbonyl-Val-Ala-Asp (OMe) fluoromethylketone) and 100 ng/ml recombinant human TNF[…] were dispensed in each well of a 96-well plate. 50 μl of compound dilutions (described in Cellular assay in U937 cells) were added and the cell suspension incubated overnight (18 to 24 hrs) at 37° C., 5% CO2 in a humidified atmosphere (95% rH). High (no compound) and low control (no TNF[…], zVAD.fmk) were tested with 7 replicates; all compound concentrations were tested in duplicates on each experimental plate.
CellTiter 96 Aqueous reagent was mixed (100 μl PMS (phenazine methosulfate) solution/2 ml MTS (3-(4,5-[…])-5-(3-carboxymethoxyphenyl)-2-(4-sulfophenyl)-2H-tetrazolium, inner salt) solution) and 20 μl were added per well. After 4 hrs incubation at 37° C. (5% CO2 95% rH) optical density was measured at 490 nm on a microplate reader (Tecan Infinite M1000).
The % inhibition is expressed as percentage of the maximal inhibition value obtained in the absence of TNFα/zVAD.fmc.

[1] = molecular target: T1, hRIPK1 (aa 1-375) fusion protein (Homo sapiens, UniProt Q13546); assay: ADP-Glo kinase assay: catalytic activity of RIPK1 (autophosphorylation, conversion of ATP to ADP); format: biochemical
T1 construct: hRIPK1 (aa 1-375) fusion protein
T1 sequence (Q13546 1-375): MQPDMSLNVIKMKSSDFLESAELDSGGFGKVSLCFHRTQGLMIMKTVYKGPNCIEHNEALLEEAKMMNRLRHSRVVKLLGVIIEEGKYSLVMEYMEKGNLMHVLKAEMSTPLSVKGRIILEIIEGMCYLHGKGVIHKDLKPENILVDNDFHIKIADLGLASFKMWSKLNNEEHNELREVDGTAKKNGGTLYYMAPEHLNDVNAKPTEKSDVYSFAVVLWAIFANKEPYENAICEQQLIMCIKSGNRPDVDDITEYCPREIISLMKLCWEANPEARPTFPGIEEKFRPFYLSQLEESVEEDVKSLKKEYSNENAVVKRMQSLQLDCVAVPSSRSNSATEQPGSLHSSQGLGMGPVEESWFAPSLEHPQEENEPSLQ
Experimental: The catalytic activity of RIPK1 was measured by monitoring the conversion of Adenosine triphosphate (ATP) to Adenosine diphosphate (ADP) due to autophosphorylation using an ADP-Glo kinase kit (Promega, catalog no. V9104).
In detail, 2 μl recombinantly produced hRIPK1 (aa 1-375) fusion protein (end concentration 3.6 μg/ml) and 2 μl compound (end concentration 33300-1.69 nM; DMSO end concentration 1%) were incubated for 30 minutes at room temperature and then 2 μl ATP (ADP Glo kit, end concentration 50 μM) were added. After another 240 minutes incubation at room temperature, 5 μl Promega ADP-Glo reagent I was added to quench the reaction and deplete unconsumed ATP. After an incubation period of 30 minutes, 10 μl Promega ADP-Glo detection reagent II was added resulting in conversion of ADP to ATP, which generates a light-reaction between luciferase and luciferin. Luminescence was quantified after 30 minutes with a Pherastar FS (BMG LABTECH, Ortenberg).
The adjustment was obtained by nonlinear regression using the Levenberg Marquardt algorithm.

| IC50 [1] [nM] | SMILES | IC50 (U937 cells) [nM] |
| --- | --- | --- |
| 51 | N#Cc1cnc2cnn(C[C@H]3CC[C@H](C(=O)N4OCC[C@H]4c4ccccn4)CC3)c2c1 [compound 187, trans-1-[[4-[(3S)-3-(2-pyridyl)isoxazolidine-2-carbonyl]cyclohexyl]methyl]pyrazolo[4,3-b]pyridine-6-carbonitrile] | 121 |
| 37 | N#Cc1cc(F)cc([C@@H]2CCON2C(=O)[C@H]2CC[C@H](Cn3cc4c(F)cc(C#N)cc4n3)CC2)c1 [compound 34, trans-2-((4-((S)-3-(3-cyano-5-fluorophenyl)isoxazolidine-2-carbonyl)cyclohexyl)methyl)-4-fluoro-2H-indazole-6-carbonitrile] | 69 |
| 29 | N#Cc1ccc2cnn(C[C@H]3CC[C@H](C(=O)N4OCC[C@H]4c4cnccn4)CC3)c2c1 [compound 200, trans-1-[[4-[(3S)-3-pyrazin-2-ylisoxazolidine-2-carbonyl]cyclohexyl]methyl]indazole-6-carbonitrile] | 4 |
| 18 | Cc1nn(C[C@H]2CC[C@H](C(=O)N3OCC[C@H]3c3cc(F)cc(F)c3)CC2)c2cc(C#N)cc(F)c12 [compound 101, trans-1-((4-((S)-3-(3,5-difluorophenyl)isoxazolidine-2-carbonyl)cyclohexyl)methyl)-4-fluoro-3-methyl-1H-indazole-6-carbonitrile] | 4 |
| 33 | N#Cc1cc(F)cc([C@@H]2CCON2C(=O)[C@H]2CC[C@H](Cn3cnc4cc(F)c(C#N)cc43)CC2)c1 [compound 13, trans-1-((4-((S)-3-(3-cyano-5-fluorophenyl)isoxazolidine-2-carbonyl)cyclohexyl)methyl)-5-fluoro-1H-benzo[d]imidazole-6-carbonitrile] | 5 |
| 37 | Cc1nc2ccc(C[C@H]3CC[C@H](C(=O)N4OCC[C@H]4c4cnccn4)CC3)cn2n1 [compound 222, trans-[4-[(2-methyl-[1,2,4]triazolo[1,5-a]pyridin-6-yl)methyl]cyclohexyl]-[(3S)-3-pyrazin-2-ylisoxazolidin-2-yl]methanone] | 48 |
| 5 | NC(=O)c1cc(C[C@H]2CC[C@H](C(=O)N3OCC[C@H]3c3cc(F)cc(F)c3)CC2)ccc1F [compound 192, trans-5-[[4-[(3S)-3-(3,5-difluorophenyl)isoxazolidine-2-carbonyl]cyclohexyl]methyl]-2-fluoro-benzamide] | 3 |
| 19 | Cc1cn2cc(C[C@H]3CC[C@H](C(=O)N4OCC[C@H]4c4cc(F)cc(C#N)c4)CC3)ccc2n1 [compound 225, trans-3-fluoro-5-[(3S)-2-[4-[(2-methylimidazo[1,2-a]pyridin-6-yl)methyl]cyclohexanecarbonyl]isoxazolidin-3-yl]benzonitrile] | 7 |
| 25 | O=C([C@H]1CC[C@H](Cn2ccc3ncc(Cl)cc32)CC1)N1OCC[C@H]1c1cc(F)cc(F)c1 [compound 21, trans-(4-((6-chloro-1H-pyrrolo[3,2-b]pyridin-1-yl)methyl)cyclohexyl)((S)-3-(3,5-difluorophenyl)isoxazolidin-2-yl)methanone] | 5 |

Further lines, the compound ahead of its results:

| SMILES | IC50 [1] [nM] | IC50 (U937 cells) [nM] |
| --- | --- | --- |
| Cc1nc([C@@H]2CCON2C(=O)[C@H]2CC[C@H](Cn3ncc4cc(C#N)ccc43)CC2)cs1 [compound 202, trans-1-[[4-[(3S)-3-(2-methylthiazol-4-yl)isoxazolidine-2-carbonyl]cyclohexyl]methyl]indazole-5-carbonitrile] | 19 | 39 |
| Cc1ncc([C@@H]2CCON2C(=O)[C@H]2CC[C@H](Cc3cc(C)c4ncnn4c3)CC2)cc1F [compound 335, trans-[(3S)-3-(5-fluoro-6-methylpyridin-3-yl)-1,2-oxazolidin-2-yl]-[4-[(8-methyl-[1,2,4]triazolo[1,5-a]pyridin-6-yl)methyl]cyclohexyl]methanone] | 27 | 11 |
| CNC(=O)c1cc(F)cc(C[C@H]2CC[C@H](C(=O)N3OCC[C@H]3c3cncc(C#N)c3)CC2)c1 [compound 163, trans-3-[[4-[(3S)-3-(5-cyano-3-pyridyl)isoxazolidine-2-carbonyl]cyclohexyl]methyl]-5-fluoro-N-methyl-benzamide] | 5 | 10 |
| Cc1nn(C[C@H]2CC[C@H](C(=O)N3OCC[C@H]3c3cc(F)cc(F)c3)CC2)c2ccccc12 [compound 60, trans-((S)-3-(3,5-difluorophenyl)isoxazolidin-2-yl)(4-((3-methyl-1H-indazol-1-yl)methyl)cyclohexyl)methanone] | 14 | 5 |
| Cc1ccc([C@@H]2CCON2C(=O)[C@H]2CC[C@H](Cc3cc(F)c4nc(C)cn4c3)CC2)cn1 [compound 351, trans-[4-[(8-fluoro-2-methylimidazo[1,2-a]pyridin-6-yl)methyl]cyclohexyl]-[(3S)-3-(6-methylpyridin-3-yl)-1,2-oxazolidin-2-yl]methanone] | 210 | 149 |
| Cc1ccc(CC23CCC(C(=O)N4OCC[C@H]4c4cc(F)cc(F)c4)(CC2)CC3)cc1C(N)=O [compound 273, 5-[[4-[(3S)-3-(3,5-difluorophenyl)-1,2-oxazolidine-2-carbonyl]-1-bicyclo[2.2.2]octanyl]methyl]-2-methylbenzamide] | 15 | 9 |
| COc1cnc2ccn(C[C@H]3CC[C@H](C(=O)N4OCC[C@H]4c4cc(F)cc(C#N)c4)CC3)c2c1 [compound 128, trans-3-fluoro-5-[(3S)-2-[4-[(6-methoxypyrrolo[3,2-b]pyridin-1-yl)methyl]cyclohexanecarbonyl]isoxazolidin-3-yl]benzonitrile] | 22 | 4 |
| N#Cc1cc(F)cc([C@@H]2CCON2C(=O)[C@H]2CC[C@H](Cn3ncc4cc(C(N)=O)ccc43)CC2)c1 [compound 72, trans-1-((4-((S)-3-(3-cyano-5-fluorophenyl)isoxazolidine-2-carbonyl)cyclohexyl)methyl)-1H-indazole-5-carboxamide] | 30 | 10 |
| Cc1nc(C[C@H]2CC[C@H](C(=O)N3OCCC3c3cnc(C)c(F)c3)CC2)cs1 (stereo partly shown) [compound 360] | 20 | 7 |
| Cc1ccc([C@@H]2CCON2C(=O)[C@H]2C[C@H](Cn3cnc4cc(F)ccc43)C2)cc1 [compound 114, trans-(3-((5-fluoro-1H-benzo[d]imidazol-1-yl)methyl)cyclobutyl)((S)-3-(p-tolyl)isoxazolidin-2-yl)methanone] | 34 | 174 |
| N#Cc1cc(F)cc([C@@H]2CCON2C(=O)[C@H]2CC[C@H](Cn3cc4ncc(C#N)cc4n3)CC2)c1 [compound 24, trans-2-((4-((S)-3-(3-cyano-5-fluorophenyl)isoxazolidine-2-carbonyl)cyclohexyl)methyl)-2H-pyrazolo[4,3-b]pyridine-6-carbonitrile] | 109 | 471 |
